What was measured:
MET = target: T1, MET (Homo sapiens, UniProt P08581); assay: MET Mobility Shift Assay; conditions: biochemical assay IC50; 100 μM ATP, 60 minute kinase reaction
T1 construct: purchased Carna Biosciences 08-151
In short: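 IC50s come from inhibition of substrate-to-phosphopeptide conversion, read by electrophoretic mobility shift. Reaction: 100 μM ATP, 1.5 μM 5-FAM peptide, 0.625 nM MET, 10 mM MgCl2, 60 min, after a 30 min room-temperature enzyme pre-incubation, quenched with EDTA.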

[1] = target: T2, Ba/F3-TPR-MET-D1228N cells (Homo sapiens, UniProt P08581, D1228N, cells depend on it); assay: CellTiter-Glo Cell Viability Assay, Ba/F3-TPR-MET-D1228N; type: cell-based; conditions: 72 hours
T2 construct: fused on or other part: P12270 (Nucleoprotein TPR)
In short: (§1)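 IC50 values come from curve-fitted luminescence. Viable-cell ATP was read by CellTiter-Glo 2.0 after a 72 h, 37 °C incubation of 3000 TPR-MET or D1228N-mutant Ba/F3 cells per well. Compounds were tested as a 9-point, 3-fold series with 0.1% DMSO final.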

MET D1228N = target: T3, MET D1228N (Homo sapiens, UniProt P08581, D1228N); assay: MET D1228N Mobility Shift Assay; conditions: biochemical assay IC50; 100 μM ATP, 60 minute kinase reaction
T3 construct: purchased Signalchem M52-12IG
In short: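 Microfluidic electrophoresis quantified phosphorylated versus unphosphorylated 5-FAM-KKKKEEIYFFF peptide (1.5 μM) after a 60 min reaction with 100 μM ATP. MET D1228N (0.313 nM) in 50 mM HEPES, 10 mM MgCl2, 2 mM DTT was preincubated 30 min; IC50 fitted to conversion inhibition.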

Ba/F3-TPR-MET cells = target: T4, Ba/F3-TPR-MET cells (Homo sapiens, UniProt P08581); assay: CellTiter-Glo Cell Viability Assay, Ba/F3-TPR-MET; type: cell-based; conditions: 72 hours
T4 construct: fused on or other part: P12270 (Nucleoprotein TPR)
In short: as §1

| Compound | IC50 (MET) | EC50 [1] | IC50 (MET D1228N) | EC50 (Ba/F3-TPR-MET cells) |
| --- | --- | --- | --- | --- |
| CCCOc1ccncc1C(=O)Nc1ccc(Oc2ccnc3cc(OCCNC)c(OC)cc23)c(F)c1F [Example 82, N-[2,3-difluoro-4-({6-methoxy-7-[2-(methylamino)ethoxy]quinolin-4-yl}oxy)phenyl]-4-propoxypyridine-3-carboxamide] | ≤ 100 nM | 100 to 1000 nM | ≤ 100 nM | 100 to 1000 nM |
| CCOc1ccncc1C(=O)Nc1cc(F)c(Oc2ccnc3cc(OCCCN(C)C)c(OC)cc23)cc1F [Example 23, N-(4-((7-(3-(dimethylamino)propoxy)-6-methoxyquinolin-4-yl)oxy)-2,5-difluorophenyl)-4-ethoxypyridine-3-carboxamide] | ≤ 100 nM | ≤ 100 nM | ≤ 100 nM | 100 to 1000 nM |
| COc1cc2nccc(Oc3c(F)cc(NC(=O)c4cnccc4OC)cc3F)c2cc1OC[C@H](C)O [Example 123, (S)-N-(3,5-difluoro-4-{[6-(2-hydroxypropoxy)-7-methoxyquinolin-4-yl]oxy}phenyl)-4-methoxypyridine-3-carboxamide] | ≤ 100 nM | ≤ 100 nM | ≤ 100 nM | ≤ 100 nM |
| CCOc1ccncc1C(=O)Nc1cc(F)c(Oc2ccnc3cc(OCCCNC)c(OC)cc23)c(F)c1 [Example 21, N-(3,5-difluoro-4-((6-methoxy-7-(3-(methylamino)propoxy)quinolin-4-yl)oxy)phenyl)-4-ethoxypyridine-3-carboxamide] | ≤ 100 nM | 100 to 1000 nM | ≤ 100 nM | 100 to 1000 nM |
| COC[C@H](C)Oc1cc2c(Oc3c(F)cc(NC(=O)c4cnccc4OC)cc3F)ccnc2cc1OC [Example 128, (S)-N-(3,5-difluoro-4-((7-methoxy-6-((1-methoxypropan-2-yl)oxy)quinolin-4-yl)oxy)phenyl)-4-methoxynicotinamide] | ≤ 100 nM | ≤ 100 nM | ≤ 100 nM | ≤ 100 nM |
| CNCCCOc1cc2nccc(Nc3c(F)cc(NC(=O)c4cnccc4OC)cc3F)c2cc1OC [Example 19, N-(3,5-difluoro-4-((6-methoxy-7-(3-(methylamino)propoxy)quinolin-4-yl)amino)phenyl)-4-methoxypyridine-3-carboxamide] | ≤ 100 nM | > 10000 nM | ≤ 100 nM | > 10000 nM |
| CCOc1ccncc1C(=O)Nc1ccc(Oc2ccnc3cc(OCCCNC)c(OC)cc23)c(F)c1F [Example 17, N-[2,3-difluoro-4-({6-methoxy-7-[3-(methylamino)propoxy]quinolin-4-yl}oxy)phenyl]-4-ethoxypyridine-3-carboxamide] | ≤ 100 nM | ≤ 100 nM | ≤ 100 nM | ≤ 100 nM |
| COc1cc(OC2CC2)c(C(=O)Nc2cc(F)c(Oc3ccnc4cc(OCCO)c(OC)cc34)c(F)c2)cn1 [Example 111, 4-cyclopropoxy-N-(3,5-difluoro-4-((7-(2-hydroxyethoxy)-6-methoxyquinolin-4-yl)oxy)phenyl)-6-methoxypyridine-3-carboxamide] | ≤ 100 nM | ≤ 100 nM | ≤ 100 nM | ≤ 100 nM |
| CNCCOc1cc2nccc(Oc3c(F)cc(NC(=O)c4cnccc4OC(C)C)cc3F)c2cc1OC [Example 59, N-[3,5-difluoro-4-({6-methoxy-7-[2-(methylamino)ethoxy]quinolin-4-yl}oxy)phenyl]-4-isopropoxypyridine-3-carboxamide] | ≤ 100 nM | ≤ 100 nM | ≤ 100 nM | ≤ 100 nM |
| COc1cc2nccc(Oc3c(F)cc(NC(=O)c4cnccc4OC4CC4)cc3F)c2cc1OCCO [Example 107, 4-cyclopropoxy-N-(3,5-difluoro-4-((6-(2-hydroxyethoxy)-7-methoxyquinolin-4-yl)oxy)phenyl)pyridine-3-carboxamide] | ≤ 100 nM | ≤ 100 nM | ≤ 100 nM | ≤ 100 nM |
| CNCCOc1cc2nccc(Oc3c(F)cc(NC(=O)c4cnc(C)cc4OC4CC4)cc3F)c2cc1OC [Example 117, 4-cyclopropoxy-N-[3,5-difluoro-4-({6-methoxy-7-[2-(methylamino)ethoxy]quinolin-4-yl}oxy)phenyl]-6-methylpyridine-3-carboxamide] | ≤ 100 nM | ≤ 100 nM | ≤ 100 nM | ≤ 100 nM |
| COc1ccncc1C(=O)Nc1cc(F)c(Oc2ccnc3cc(OCCO)ccc23)c(F)c1 [Example 41, N-(3,5-difluoro-4-((7-(2-hydroxyethoxy)quinolin-4-yl)oxy)phenyl)-4-methoxypyridine-3-carboxamide] | ≤ 100 nM | ≤ 100 nM | ≤ 100 nM | 100 to 1000 nM |
| COc1cc2nccc(Oc3c(F)cc(NC(=O)c4cnccc4OCCO)cc3F)c2cc1OC [Example 95, N-{4-[(6,7-dimethoxyquinolin-4-yl)oxy]-3,5-difluorophenyl}-4-(2-hydroxyethoxy)pyridine-3-carboxamide] | ≤ 100 nM | 100 to 1000 nM | ≤ 100 nM | 100 to 1000 nM |
| CNCCOc1ccc2c(Oc3c(F)cc(NC(=O)c4cnccc4OC4CC4)cc3F)ccnc2c1 [Example 87, 4-cyclopropoxy-N-[3,5-difluoro-4-({7-[2-(methylamino)ethoxy]quinolin-4-yl}oxy)phenyl]pyridine-3-carboxamide] | ≤ 100 nM | ≤ 100 nM | ≤ 100 nM | ≤ 100 nM |
| COc1cc2c(Oc3c(F)cc(NC(=O)c4cnccc4OC)cc3F)ccnc2cc1OCC(C)(C)O [Example 39, N-(3,5-difluoro-4-((7-(2-hydroxy-2-methylpropoxy)-6-methoxyquinolin-4-yl)oxy)phenyl)-4-methoxypyridine-3-carboxamide] | ≤ 100 nM | ≤ 100 nM | ≤ 100 nM | 100 to 1000 nM |
| (S)-N-(4-((7-(2-aminopropoxy)quinolin-4-yl)oxy)-3,5-difluorophenyl)-4-cyclopropoxypyridine-3-carboxamide [Example 12] | ≤ 100 nM | ≤ 100 nM | ≤ 100 nM | ≤ 100 nM |
| CNCCOc1cc2nccc(Oc3c(F)cc(NC(=O)c4cnccc4OCCOC)cc3F)c2cc1OC [Example 67, N-[3,5-difluoro-4-({6-methoxy-7-[2-(methylamino)ethoxy]quinolin-4-yl}oxy)phenyl]-4-(2-methoxyethoxy)pyridine-3-carboxamide] | ≤ 100 nM | 100 to 1000 nM | ≤ 100 nM | 100 to 1000 nM |
| COc1cc2c(Oc3c(F)cc(NC(=O)c4cnccc4OCC(F)F)cc3F)ccnc2cc1OCCO [Example 135, N-(3,5-difluoro-4-((7-(2-hydroxyethoxy)-6-methoxyquinolin-4-yl)oxy)phenyl)-4-(2,2-difluoroethoxy)pyridine-3-carboxamide] | ≤ 100 nM | ≤ 100 nM | ≤ 100 nM | ≤ 100 nM |
| NC1(COc2ccc3c(Oc4c(F)cc(NC(=O)c5cnccc5OC5CC5)cc4F)ccnc3c2)CC1 [Example 88] | ≤ 100 nM | ≤ 100 nM | ≤ 100 nM | 100 to 1000 nM |
| COc1ccncc1C(=O)Nc1cc(F)c(Oc2ccnc3cc(OC)c(O[C@@H](C)CO)nc23)c(F)c1 [Example 145, (S)-N-(3,5-difluoro-4-((6-((1-hydroxypropan-2-yl)oxy)-7-methoxy-1,5-naphthyridin-4-yl)oxy)phenyl)-4-methoxynicotinamide] | ≤ 100 nM | ≤ 100 nM | ≤ 100 nM | ≤ 100 nM |
| CNCCOc1cc2nccc(Oc3c(F)cc(NC(=O)c4c(OC)ccnc4F)cc3F)c2cc1OC [Example 4, N-(3,5-difluoro-4-((6-methoxy-7-(2-(methylamino)ethoxy)quinolin-4-yl)oxy)phenyl)-2-fluoro-4-methoxypyridine-3-carboxamide] | ≤ 100 nM | 100 to 1000 nM | ≤ 100 nM | 100 to 1000 nM |
| COc1ccncc1C(=O)Nc1cc(F)c(Oc2ccnc3ccc(O[C@@H](C)CO)cc23)c(F)c1 [Example 130, (S)-N-(3,5-difluoro-4-((6-((1-hydroxypropan-2-yl)oxy)quinolin-4-yl)oxy)phenyl) -4-methoxynicotinamide] | ≤ 100 nM | ≤ 100 nM | ≤ 100 nM | 100 to 1000 nM |
| CNCCOc1ccc2c(Oc3c(F)cc(NC(=O)c4cnc(C)cc4OC4CC4)cc3F)ccnc2c1 [Example 115, 4-cyclopropoxy-N-(3,5-difluoro-4-((7-(2-(methylamino)ethoxy)quinolin-4-yl)oxy)phenyl)-6-methylpyridine-3-carboxamide] | ≤ 100 nM | ≤ 100 nM | ≤ 100 nM | ≤ 100 nM |
| CC(C)(CO)Oc1ccc2c(Oc3c(F)cc(NC(=O)c4cnccc4OC4CC4)cc3F)ccnc2c1 [Example 108, 4-cyclopropoxy-N-(3,5-difluoro-4-((7-((1-hydroxy-2-methylpropan-2-yl)oxy)quinolin-4-yl)oxy)phenyl)pyridine-3-carboxamide] | ≤ 100 nM | 1000 to 10000 nM | ≤ 100 nM | 1000 to 10000 nM |

From patent publication US11753395B2 (Kinnate Biopharma Inc., priority 2021, dated 2023)
